Our source for the EC50 values is patent US9296720B2, “Carboxamide-substituted heteroaryl-pyrazoles and the use thereof” (AiCuris GmbH & Co. KG, priority 2011, dated 2016).

Common to all, as to format: cell-based
One experiment concerns HIV-1LAI Wild Type. The experiment can be described thus: AlamarBlue viability assay, HIV-1LAI-infected MT4 cells. Particulars: 10% FCS. Here is the method:
For the batch of a 96-well MTP, 3 million PBLs are pelletized, suspended in 1 ml of RPMI 1640 medium/10% FCS/2 mmol of L-glutamine/1% Pen/Strep, and incubated together with a suitable amount of HIV-1LA1 (NIH AIDS Research & Reference Reagent Program, Germantown, USA) for 2 hours at 37° C. (pellet infection). Non-adsorbed viruses are then washed out with PBS, the infected cells are pelletized again, and suspended in 18 ml of RPMI 1640 medium/10% FCS/2 mmol of L-glutamine/1% Pen/Strep/interleukin-2 (40 U/ml). Therefrom, 180 μl per well is pipetted into a white 96-well MTP in 20 μl of test substance in a suitable dilution. As an alternative, after preparation of the substance dilutions, the HIV is added by pipetting in the MTP together with the cells and is no longer washed out (supernatant infection). In order to avoid boundary effects, the edge wells of the MTP are not used for substance dilutions. The second vertical row of the MTP contains only infected cells (virus control), and the eleventh vertical row contains only non-infected cells (cell control) in each case in RPMI 1640 medium/10% FCS/2 mmol of L-glutamine/1% Pen/Strep/interleukin-2 (40 U/ml). The other wells of the MTP contain the compounds according to the invention in different concentrations starting from the third vertical row, from which dilution of the test substances is carried out 3^7 times in three steps up to the tenth vertical row. The test substances are dissolved in DMSO, whereby the DMSO final concentration in the test batch is ultimately 1%. The test batches are incubated at 37° C./5% CO2. After 5 and 7 days, in each case 50 μl of cell-free supernatant is drawn off from each well in order to determine the amount of p24 contained by means of p24 ELISA (HIV-1 p24^CA Antigen Capture Assay Kit, NCI-Frederick Cancer Research and Development Center, Frederick, USA). From the resulting values of the photometric analysis (450/620 nm), the EC50 values of the test substances are determined as the concentration of the treated infected cells, in which the amount of p24 is 50% of the untreated infected cells.
As an alternative, MT4 cells are used for testing test substances instead of PBLs. HIV-1LA1-infected MT4 cells (MOI 0.01, supernatant infection) are incubated according to the above-described pattern in RPMI 1640 medium with 2% or 10% FCS/2 mmol of L-glutamine/1% Pen/Strep in the presence of test substances for 5 days at 37° C./5% CO2 (20 μl of substance dilution and 80 μl of cells/virus per well). Then, 10 μl of AlamarBlue (Invitrogen, Karlsruhe, Germany) is added to each well, and MTPs are incubated for 3 hours at 37° C., before the fluorimetric analysis is done (544/590 nm). The resulting values are approximately 30,000 in the case of untreated, non-infected cells, and approximately 6,000 in the case of untreated infected cells. In the low concentration range, the EC50 values of the test substances are determined as the concentration of the treated infected cells, in which the fluorescence is 50% of the untreated non-infected cells (in each case relative to the values of the untreated infected cells). In addition, in the high concentration range, the CC50 values of the test substances are determined as the concentration of the treated infected cells, in which the fluorescence is 50% of the untreated, non-infected cells (in each case relative to the values of the untreated infected cells).
A general note: The colour change of resazurin is a common sign of viable cells or microbes.

Another experiment has as its system HIV-1NL4-3 K103N-Y181C. The experiment can be described thus: Luminescence reduction assay, MT4 cells infected with HIV-1NL4-3 luciferase reporter virus, RT mutant K103N-Y181C. The source says: (§1) For this assay, HIV-1NL4-3 reporter viruses are used, which carry the luciferase164 gene (lu164) instead of the nef gene. The viruses are generated by transfection of 293T cells with the corresponding proviral pNL4-3 plasmid (Lipofectamine Reagent, Invitrogen, Karlsruhe, Germany). Starting from the proviral plasmid-DNA, viruses with defined resistance mutations in the reverse transcriptase gene are produced with the “QuikChange II XL Site-Directed Mutagenesis Kit” (Stratagene, Cedar Creek, Tex., USA). Among other things, the following mutations are generated: A98G, A98G-K103N-V108I, A98S, F227C, F227L, G190A, G190S, K101E, K101Q-K103N, K103N, K103N-F227L, K103N-G190A, K103N-G190S, K103N-M230L, K103N-N348I, K103N-P225H, K103N-V108I, K103N-V108I-P225H, K103N-V179F-Y181C, K103N-Y181C, K103N-Y181C-G190A, L100I, L100I-K103N, L100I-K103N-V179I-Y181C, L100I-K103N-Y181C, L234I, N348I, P225H, P236L, V106A, V106A-E138K, V106A-F227C, V106A-F227L, V106I, V106I-Y188L, V106M, V108I, V179F-Y181C, V179I, V179I-Y181C, Y181C, Y181C-G190A, Y181C-M230L, Y181I, Y188L. MT4 cells infected with these reporter viruses (NIH AIDS Research and Reference Reagent Program) secrete luciferase into the medium, which makes possible the luminometric quantification of the virus replication.
(§2) For the batch of a 96-well MTP, 3 million MT4 cells are pelletized, suspended in 1 ml of RPMI 1640 medium without phenol red (Invitrogen, Karlsruhe, Germany)/10% FCS/2 mmol of L-glutamine/1% Pen/Strep (Invitrogen, Karlsruhe, Germany), and incubated together with a suitable amount of the corresponding HIV-1NL4-3 reporter virus for 2 hours at 37° C. (pellet infection). Non-adsorbed viruses are then washed out with PBS, the infected cells are pelletized again, and suspended in 8 ml of RPM 11640 medium without phenol red/2% or 10% FCS/2 mmol of L-glutamine/1% Pen/Strep. Therefrom, 80 μl per well is pipetted into a white 96-well MTP in 20 μl of test substance in a suitable dilution. In order to avoid boundary effects, the edge wells of the MTP are not used for substance dilutions. The second vertical row of the MTP contains only infected cells (virus control), and the eleventh vertical row contains only non-infected cells (cell control) in each case in RPMI 1640 medium without phenol red/2% or 10% FCS/2 mmol of L-glutamine/1% Pen/Strep. The other wells of the MTP contain the compounds according to the invention in different concentrations starting from the third vertical row, from which dilution of the test substances is carried out 3^7 times in three steps up to the tenth vertical row. The test substances are dissolved in DMSO, whereby the DMSO final concentration in the test batch is ultimately 1%. The test batches are incubated for 5 days at 37° C./5% CO2, and are luminometrically evaluated after the addition of 15 μl of Lu164-buffer (65 mmol of NaCl, 300 mmol of MES, pH 5.8, 5 mmol of glutathione and 1:200 coelenterazine (5 mg/ml in 30 μM of glutathione/DMSO) (P.J.K. GmbH, Kleinblittersdorf, Germany)). In the virus control, the resulting values are in the range of 1 million RLUs (relative light units), and in the cell control, the resulting values are 300 to 400 RLUs. The EC50 values of the test substances are determined as the concentration of the treated infected cells, in which the virus replication measured in RLUs is 50% of the untreated infected cells.
On the technique in general: In a reporter assay the amount or activity of a reporter protein is the signal.

A further experiment deals with HIV-1NL4-3 Wild Type. The experiment can be described thus: Luminescence reduction assay, MT4 cells infected with HIV-1NL4-3 luciferase reporter virus, wild type. Particulars: 2% FCS.
From the text: as §1, §2

Where [1] appears, read: Human immunodeficiency virus 1, MT4, MT4 cells.
The mark [2] stands for this setting: Human immunodeficiency virus 1, MT4, read-out: EC50 (μM) MT4 Cells HIV-1NL4-3 K103N-Y181C 2% FCS, MT4 cells, HIV-1NL4-3 K103N-Y181C, 2% FCS.

Molecules are shown by their SMILES. Where two headings read alike, the source gives them in different places. A value given as a limit tells only on which side of the number the result lay.

For `O=C1CN(C(=O)c2cc(-c3cc(Br)cc(OC(F)(F)F)c3)n(-c3cncc(Cl)c3)n2)CN1` [Example 42, 1-({5-[3-Bromo-5-(trifluoromethoxy)phenyl]-1-(5-chloropyridin-3-yl)-1H-pyrazol-3-yl}carbonyl)imidazolidin-4-one], the results for the EC50 in the experiment on HIV-1LAI Wild Type (setting [1]), in the experiment with HIV-1NL4-3 K103N-Y181C (setting [2]) and in the experiment with HIV-1NL4-3 Wild Type (setting [1]) were 0.247 µM, 0.028 µM and 0.018 µM, respectively.
For `O=C1CN(C(=O)c2cc(-c3cc(F)cc(OC(F)F)c3)n(-c3ccnc(Cl)c3)n2)CN1` [Example 68, 1-({1-(2-Chloropyridin-4-yl)-5-[3-(difluoromethoxy)-5-fluorophenyl]-1H-pyrazol-3-yl}carbonyl)imidazolidin-4-one] the same measures were 0.326 µM, 0.193 µM and 0.062 µM.
As for `O=C(c1cc(-c2cc(F)cc(OC(F)(F)F)c2)n(-c2ccnc(Cl)c2)n1)N1CC[S+]([O-])C1` (stereo not drawn) [Example 64, {1-(2-Chloropyridin-4-yl)-5-[3-fluoro-5-(trifluoromethoxy)phenyl]-1H-pyrazol-3-yl}(1-oxido-1,3-thiazolidin-3-yl)methanone], the 50% effective concentration (EC50) – broadly, the midpoint of the concentration-response curve – worked out at 1.55 µM in the experiment on HIV-1LAI Wild Type (setting [1]), 0.771 µM with HIV-1NL4-3 K103N-Y181C (setting [2]) and 0.103 µM with HIV-1NL4-3 Wild Type (setting [1]).
In the same order, the values of `O=C1CN(C(=O)c2cc(-c3cc(Br)cc(OC(F)(F)F)c3)n(-c3cncc(F)c3)n2)CN1` [Example 44, 1-({5-[3-Bromo-5-(trifluoromethoxy)phenyl]-1-(5-fluoropyridin-3-yl)-1H-pyrazol-3-yl}carbonyl)imidazolidin-4-one] are 0.274 µM, 0.02 µM and 0.018 µM.
For `O=C(c1cc(-c2cc(Br)cc(OC(F)(F)F)c2)n(-c2ccc[n+]([O-])c2)n1)N1CCS(=O)(=O)C1` [Example 33, {5-[3-Bromo-5-(trifluoromethoxy)phenyl]-1-(1-oxidopyridin-3-yl)-1H-pyrazol-3-yl}(1,1-dioxido-1,3-thiazolidin-3-yl)methanone] the same measures were 1.02 µM, 0.299 µM and 0.069 µM.
For `O=C(c1cc(-c2cc(F)cc(OC(F)(F)F)c2)n(-c2cccnc2)n1)N1CCOCC1` [Example 61, {5-[3-Fluoro-5-(trifluoromethoxy)phenyl]-1-(pyridin-3-yl)-1H-pyrazol-3-yl}(morpholin-4-yl)methanone], the EC50 in the experiment with HIV-1LAI Wild Type (setting [1]) was 0.6 µM; with HIV-1NL4-3 K103N-Y181C (setting [2]), 0.767 µM; in the experiment on HIV-1NL4-3 Wild Type (setting [1]), 0.092 µM.
For `O=C(c1cc(-c2cc(Br)cc(OC(F)(F)F)c2)n(-c2ccc(F)nc2)n1)N1CCSC1` [Example 41, {5-[3-Bromo-5-(trifluoromethoxy)phenyl]-1-(6-fluoropyridin-3-yl)-1H-pyrazol-3-yl}(1,3-thiazolidin-3-yl)methanone], the EC50 in the experiment with HIV-1LAI Wild Type (setting [1]) stood at 0.991 µM; in the experiment on HIV-1NL4-3 K103N-Y181C (setting [2]) it was 0.087 µM; in the experiment on HIV-1NL4-3 Wild Type (setting [1]), 0.042 µM.
Take `O=C(c1cc(-c2cc(F)cc(OC(F)(F)F)c2)n(-c2cccnc2)n1)N1CC[S+]([O-])C1` (racemic) [Example 60-1, {5-[3-Fluoro-5-(trifluoromethoxy)phenyl]-1-(pyridin-3-yl)-1H-pyrazol-3-yl}(1-oxido-1,3-thiazolidin-3-yl)methanone]: the EC50 with HIV-1LAI Wild Type (MT4 cells) is over 3.3 µM; in the experiment on HIV-1NL4-3 K103N-Y181C (read-out: EC50 (μM) MT4 Cells HIV-1NL4-3 K103N-Y181C 2% FCS, MT4 cells, HIV-1NL4-3 K103N-Y181C, 2% FCS) it was over 3.3 µM; in the experiment on HIV-1NL4-3 Wild Type (MT4 cells) it was 0.431 µM.
As for `O=C(c1cc(-c2cc(F)cc(OCC(F)(F)F)c2)n(-c2cccnc2)n1)N1CCS(=O)(=O)C1` [Example 74, (1,1-Dioxido-1,3-thiazolidin-3-yl) {5-[3-fluoro-5-(2,2,2-trifluoroethoxy)phenyl]-1-(pyridin-3-yl)-1H-pyrazol-3-yl}methanone], the EC50 in the experiment with HIV-1LAI Wild Type (setting [1]) turned out to be 0.066 µM; with HIV-1NL4-3 K103N-Y181C (setting [2]) it was 0.302 µM; with HIV-1NL4-3 Wild Type (setting [1]), 0.004 µM.
For `COc1cc(-n2nc(C(=O)N3CNC(=O)C3)cc2-c2cc(Br)cc(OC(F)(F)F)c2)ccn1` [Example 55, 1-({5-[3-Bromo-5-(trifluoromethoxy)phenyl]-1-(2-methoxypyridin-4-yl)-1H-pyrazol-3-yl}carbonyl)imidazolidin-4-one] the same measures were 0.104 µM, 0.01 µM and 0.003 µM.
For `O=C(c1cc(-c2cc(Br)cc(OC(F)(F)F)c2)n(-c2cccnc2)n1)N1CCSC1` [Example 30, (5-[3-Bromo-5-(trifluoromethoxy)phenyl]-1-(pyridin-3-yl)-1H-pyrazol-3-yl) (1,3-thiazolidin-3-yl)methanone] the same measures were 0.794 µM, 0.181 µM and 0.033 µM.
As to `O=C1CN(C(=O)c2cc(-c3cc(F)cc(OC(F)F)c3)n(-c3cccnc3)n2)CCN1` [Example 67], the EC50 with HIV-1LAI Wild Type (setting [1]) stood at 0.641 µM; in the experiment with HIV-1NL4-3 K103N-Y181C (setting [2]), 0.721 µM; in the experiment with HIV-1NL4-3 Wild Type (setting [1]), 0.051 µM.
